Data set [1] relates to binding between mTORC2 and ribosomes. Nature of the data set: PLA of mTORC2-ribosome binding with Ca2+ chelators. The class given is cell-based. The settings on record: HT1080 cells, 10 μM. As to the method: FIG. 46A is the PLA result between the indicated proteins (fine and bright spots) in HT1080 cells treated with BAPTA-AM (10 μM), BAPTA (10 μM), and EGTA-AM (10 μM). The scale bar represents 15 μm. The graph on the right quantifies the fine, bright points (n=3, independent experiment). Data were expressed as mean±SD. **p<0.01; ****p<0.0001, Tukey's post hoc test after member ANOVA.
The role of Ca^2+ in mTORC2 activation was investigated. Ca^2+ depletion by BAPTA acetoxymethyl ester (BAPTA-AM) rather than BAPTA or slow Ca^2+ chelator (ie, EGTA-AM) blocked the binding between mTORC2 and ribosomes as shown in PLA analysis results. (See FIG. 46A).

A further data set concerns SARS-CoV2 virus. In words: MTT cell viability of Vero E6 cells infected with SARS-CoV2. Particulars: Severe acute respiratory syndrome coronavirus 2, Vero C1008, 24 h, Vero E6, SARS-CoV2 0.1 MOI, 500 nM, 24 hours after treatment; control DMSO-S 66.52±2.28%. The class given is cell-based. The protocol: Vero E6 cells, monkey kidney cell masters, were dispensed at 1×10^4 cells/well per well in 96 well plates and incubated at 37° C., 5% CO2 incubators for 24 hours. SARS-CoV2 to infect Vero E6 cells was S ARS-CoV 43326 distributed from the National Pathogen Resource Bank, and DMEM (2% FBS, 1% antibiotic-antimycotic) medium was dispensed at 100 μL/well to infect 0.1 MOI. For 1 hour The virus was removed after 1 hour of infection in a 37° C., 5% CO2 incubator.
Next, samples prepared so that BIA or analogue compounds were finally 500 nM were dispensed 100 μL/well, including the culture medium, and then treated in a 37° C., 5% CO2 incubator for 24 hours. In the same way, the group treated with 2 μM, 5 μM, or 10 μM of Remdesivir (Rem) was a positive control.
Check the condition of the cells, add 100 μL/well of 0.5 mg/ml MTT solution, react in a 37° C., 5% CO2 incubator for 4 hours, wash out the media, and DMSO to the cells by 100 μL/well After sufficient dissolution, absorbance was measured at 540 nm with a plate reader to evaluate cell viability.
To confirm the possibility of viral prevention and therapeutic effects of BIA and its analogue compounds, 500 nM treatment of BIA analogue at the same time as viral infection, and then MTT assay whether the viability of cells against viral infection is improved after 24 hours. The results confirmed are shown in the graph of FIG. 82.

Data set [2] is described as follows: Cell viability for BIA and analogues, DU145 cell line. The class given is cell-based. Particulars: human; for viability at 10 µM: DU145, 10 uM; for viability at 20 µM: DU145, 20 uM; for viability: DU145, 50 rpm. As to the method:
(§1) The compound prepared in Example 15 was treated with HT1080 fibrosarcoma cell line at 5 μM and 10 μM and cell viability was measured. In addition, the compound prepared in Example 15 on the DU145 prostate cancer cell line was treated with 10 μM, 20 μM, and 30 μM and cell viability was measured (see Table 2, Table 3).

Data set [3] in a line: Cell viability for BIA and analogues, HT1080 cell line. The class given is cell-based. The settings on record: human, HT1080 fibrosarcoma cells. The protocol: HT1080 MDA-MB-231, SKBR3 and MCF7 cell lines were cultured in a 37° C., 5% CO2 incubator in a medium with 10% Fetal Bovine Serum, 1% penicillin and streptomycin (100 U) added to DMEM.
as §1

In a further data set the test system is BAL inflammatory cells. Nature of the data set: Aspergillus-infected asthmatic mouse model, BAL cells and lung histology. The settings on record: asthma-inducing group; BIA 0.1 mg/kg and 0.01 mg/kg, IC87114 1 mg/kg, intratracheal. The format is in vivo. From the text: FIG. 80A and FIG. 80B show mice that were infected with aspergillus with or without BIA, or IC87114, fixing the tissue to 4% formalin, injecting paraffin to make blocks, and then cutting into 4 μm thick to react to buffer and performing hematoxylin-eosin staining. The observation result (A) and the observation result (B) by PAS staining are shown.
The result is quantified by counting the total number of cells of living BAL fluid, excluding dead cells stained in trypan blue.
A. fumigatus-induced allergic pulmonary inflammation To establish the model, mice were treated with 10 μg of A. fumigatus crude antigen extract (Greer Laboratories, Cat # XPM3D3A4, Lenoir, NC, USA) with fungal substance inactivated. 0.2 ml of incomplete Freund's adjuvant (Sigma-Aldrich, Cat # F5506-6X) in regular saline It was dissolved and mixed, and half of the preparation was deposited in the peritoneal cavity and the rest was delivered subcutaneously. After 2 weeks, mice received 20 μg of A. fumigatus antigen dissolved in normal saline through the intranasal route, after an intranasal attack After 4 days, 20 μg of A. Fumigatus antigen dissolved in normal saline was treated via the endotracheal route. Control mice were administered only saline at the same time point in time through the same route and treated with the same number of conidia. […]

A further data set relates to BI-1 (TMBIM6). In words: HT1080 xenograft with SAMiRNA knockdown of BI-1. The class given is in vivo, nude mice. Particulars: 1 mg/kg, intravenously in the tail every 3 days. The protocol: FIGS. 13A-13D show the volume, weight, and size of tumors derived from HT1080 in TMBIM6-target SAMiRNA, control SAMiRNA or nude mice injected with saline solution (n=5 mice per group) through the tail vein. Data were expressed as mean±SD. *p<0.05, ***p<0.001, ****p<0.0001, Bonferroni's post hoc test (B) after binary ANOVA, member ANOVA followed by Tukey's post hoc test.
In culture, exponentially growing BI-1 (TMBIM6) knockout and WT HT1080 cells were treated with trypsin and quantified through trypan blue staining differentiation, and 3-5×10^6 cells were resuspended in 0.1 ml PBS. Cells were injected subcutaneously into the flanks of each mouse. 5×10^6 cells were injected into 0.1 ml PBS for SMAiRNA or BIA treatment. When the weight of the tumor reaches about 100 mg (7-10 days after inoculation), mice are randomly assigned 1 mg/kg BI-1 SAMiRNA diluted in saline, 1 mg/kg BIA diluted in DMSO (final concentration: 10% v/v) or vehicle (saline solution or DMSO, 10% v/v) was divided into groups.
SAMiRNA was administered intravenously in the tail every 3 days and BIA was injected intraperitoneally 5 days per week over 3 weeks. […].
After 25-28 days, the mice were euthanized, solid tumors were incised, and tumor volumes were recorded. Tumor size was measured with a caliper. The tumor volume (mm^3) was calculated by the formula [(shortest diameter)2×longest diameter]/2.

Consider five molecules from patent US20240139125A1 (INDUSTRIAL COOPERATION FOUNDATION JEONBUK NATIONAL …, priority 2020, published 2024).

Take `CC(=O)OCOC(=O)CN(CC(=O)OCOC(C)=O)c1ccccc1OCCOc1ccccc1N(CC(=O)OCOC(C)=O)CC(=O)OCOC(C)=O` [BAPTA-AM, BAPTA acetoxymethyl ester]: in data set [1], the “binding between mTORC2 and ribosomes” value was “blocked”.

In the data set with SARS-CoV2 virus, `Nc1ccccc1C(=O)/C=C/c1cccc([N+](=O)[O-])c1` [GM-90129, (E)-1-(2-aminophenyl)-3-(3-nitrophenyl)prop-2-en-1-one] came in with a viability at 0.5 µM of 77.7 ± 3.6%. For the same molecule, in data set [2], the viability at 10 µM came to 91.4%, the viability at 20 µM is 90.2% and the viability worked out at 61.4%.

In the data set with SARS-CoV2 virus, `Nc1ccccc1C(=O)/C=C/c1ccncc1` [GM-90228, (E)-1-(2-aminophenyl)-3-(pyridin-4-yl)prop-2-en-1-one] had a viability at 0.5 µM of 74.3 ± 3.43%. In data set [2], the viability at 10 µM was found to be 54.1%, the viability at 20 µM amounted to 37.8% and the viability worked out at 15.1%. This molecule displayed a viability at 5 µM in data set [3] (HT1080, 5 uM) of 30.4%. In data set [3] (HT1080, 10 uM), this molecule had a viability at 10 µM of 22.8%.

On to `Cc1ccccc1-n1c(Cn2cnc3c(N)ncnc32)nc2cccc(C)c2c1=O` [IC87114, reference compound], for which, in the data set with BAL inflammatory cells, the “all BAL inflammatory cells” value is “inhibited”.

With “SAMiRNA: self-assembled micelle inhibitory RNA against BI-1, sequence 5′-AAGGCACUGCAUUGAUCUUU-3′, obtained from Bioneer (siRNA; micelle-forming conjugate, chemistry not fully specified)”, the “tumor formation and Ki67 expression” value with BI-1 (TMBIM6) is recorded as “reduced”.

For orientation: viability means the share of living cells, or the viability signal relative to a control. A low value points to a greater loss of cells.
